Data as given in patent publication US11453660B2, “Androgen receptor and glucocorticoid receptor modulators” (ONCOSTELLAE, S.L., priority 2017, dated 2022).
Residue numbers refer to the chain shown, from its start. pIC50: −log10 of the molar value. Blank lines part the entries; values can stand above or below the molecule they belong to.

Experiments:
[1] = molecular target: T1, Rat Androgen Receptor (Rattus norvegicus, UniProt P15207); assay: Rat Androgen Receptor Binding (polarscreen AR competitor assay, fluorescence polarization); settings: displacement of Fluormone AL Green, 4 hours at RT, read-out: AR rat-fluorimetric
T1 construct: purchased Life Technologies A15880
T1 sequence (P15207 646-902 limits assumed): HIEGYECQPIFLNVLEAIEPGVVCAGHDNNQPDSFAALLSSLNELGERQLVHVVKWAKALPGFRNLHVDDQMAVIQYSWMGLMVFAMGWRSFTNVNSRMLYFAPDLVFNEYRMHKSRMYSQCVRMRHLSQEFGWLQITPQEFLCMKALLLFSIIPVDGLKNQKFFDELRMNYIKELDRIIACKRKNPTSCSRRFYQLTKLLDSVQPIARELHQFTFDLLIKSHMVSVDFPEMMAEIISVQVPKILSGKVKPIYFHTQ
Procedure, shortened: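 Fluorescence-polarization competition of Fluormone AL Green binding to rat androgen receptor; compounds screened in duplicate at 1 and 10 μM, 4 h at RT, read at λexc 485/λem 535 nm. IC50 from 1:10 dilution series, 10 μM to 0.1 nM, in 1× buffer.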

[2] = molecular target: T2, human androgen receptor (Homo sapiens, UniProt P10275, T878A); assay: Human Androgen Receptor Binding (radioligand binding, LnCap prostate cancer cell line); settings: LnCap cells, displacement of [^3H]-methyltrienolone, 2 hours at 37° C.; read-out: AR LNCaP
T2 construct: endogenously expressed human androgen receptor using the LnCap prostate cancer cell line; endogenous in cells; host or cells: LNCaP prostate cancer cell line (whole cells)
T2 sequence (P10275 1-920 T878A): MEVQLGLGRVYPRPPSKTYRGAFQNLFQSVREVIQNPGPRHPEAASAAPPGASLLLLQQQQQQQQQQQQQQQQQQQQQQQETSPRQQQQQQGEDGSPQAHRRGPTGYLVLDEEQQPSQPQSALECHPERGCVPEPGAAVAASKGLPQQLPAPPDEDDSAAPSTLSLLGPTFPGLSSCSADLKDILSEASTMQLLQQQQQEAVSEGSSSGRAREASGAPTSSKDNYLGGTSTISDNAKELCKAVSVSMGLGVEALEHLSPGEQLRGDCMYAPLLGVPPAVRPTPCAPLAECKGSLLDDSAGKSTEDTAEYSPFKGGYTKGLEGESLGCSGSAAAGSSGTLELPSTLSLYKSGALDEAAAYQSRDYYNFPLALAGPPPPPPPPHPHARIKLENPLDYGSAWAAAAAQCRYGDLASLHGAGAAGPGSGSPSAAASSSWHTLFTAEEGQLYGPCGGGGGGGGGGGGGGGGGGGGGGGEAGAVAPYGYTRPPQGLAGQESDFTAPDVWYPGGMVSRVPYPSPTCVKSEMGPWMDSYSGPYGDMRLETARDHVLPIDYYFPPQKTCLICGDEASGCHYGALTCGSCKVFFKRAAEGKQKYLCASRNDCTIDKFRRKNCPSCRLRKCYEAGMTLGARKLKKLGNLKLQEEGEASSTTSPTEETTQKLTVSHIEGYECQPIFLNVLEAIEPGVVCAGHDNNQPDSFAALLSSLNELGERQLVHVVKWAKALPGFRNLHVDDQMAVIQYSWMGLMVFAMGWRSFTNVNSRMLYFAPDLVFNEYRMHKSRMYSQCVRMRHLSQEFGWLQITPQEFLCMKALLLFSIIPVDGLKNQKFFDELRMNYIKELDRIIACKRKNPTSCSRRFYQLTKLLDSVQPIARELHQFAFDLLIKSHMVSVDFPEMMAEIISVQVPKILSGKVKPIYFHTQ
Procedure, shortened: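 Whole-cell displacement of [3H]-methyltrienolone from endogenous AR (T878A) in LnCap cells, in RPMI with 0.1% BSA and triamcinolone acetonide. Compounds 10 μM to 0.1 nM in 1:10 steps, 2 h at 37 °C; cells washed, SDS-lysed, bound radioactivity by scintillation counting for IC50.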

[3] = molecular target: T3, Human Glucocorticoid Receptor (Homo sapiens, UniProt P04150); assay: Competition Binding in IM-9 Human Glucocorticoid Receptor (GR IM-9); settings: cytosol from IM-9 cell line, 1.5 nM [3H]-Dexamethasone, 4° C. for 6 hours
T3 construct: endogenous in cells; host or cells: cytosol from IM-9 cell line
T3 sequence (P04150 1-777): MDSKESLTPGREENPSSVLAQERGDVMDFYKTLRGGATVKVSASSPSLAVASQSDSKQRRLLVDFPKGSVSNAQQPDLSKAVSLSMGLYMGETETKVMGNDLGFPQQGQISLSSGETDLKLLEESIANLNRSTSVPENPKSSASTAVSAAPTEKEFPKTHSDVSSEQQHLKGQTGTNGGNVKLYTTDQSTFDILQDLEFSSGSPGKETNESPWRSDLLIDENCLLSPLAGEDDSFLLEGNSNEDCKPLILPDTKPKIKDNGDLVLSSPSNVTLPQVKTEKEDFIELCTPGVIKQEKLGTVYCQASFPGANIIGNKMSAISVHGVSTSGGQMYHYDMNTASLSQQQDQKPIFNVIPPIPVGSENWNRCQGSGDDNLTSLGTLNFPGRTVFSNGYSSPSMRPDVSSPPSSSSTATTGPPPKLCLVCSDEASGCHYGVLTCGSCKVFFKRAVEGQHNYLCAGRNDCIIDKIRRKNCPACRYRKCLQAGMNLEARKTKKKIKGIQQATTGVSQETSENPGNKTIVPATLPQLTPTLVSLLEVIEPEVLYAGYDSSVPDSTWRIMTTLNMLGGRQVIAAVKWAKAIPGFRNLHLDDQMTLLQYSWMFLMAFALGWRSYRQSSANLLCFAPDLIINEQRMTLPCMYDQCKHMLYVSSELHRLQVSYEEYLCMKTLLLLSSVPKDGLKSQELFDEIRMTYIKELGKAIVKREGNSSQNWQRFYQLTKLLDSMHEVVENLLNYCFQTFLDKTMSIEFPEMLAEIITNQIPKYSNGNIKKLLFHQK
Procedure, shortened: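 Radioligand competition using 100 μg IM-9 cell cytosol and 1.5 nM [3H]-dexamethasone, incubated 6 h at 4° C in TES/molybdate buffer, pH 7.4. Filtration on PEI-treated GF/B filters, scintillation counting; nonspecific binding defined with 10 μM triamcinolone.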

[4] = molecular target: T4, AR-Receptor (Homo sapiens, UniProt P10275); assay: Functional Assay AR-Receptor (MDA-MB-453 cells, luciferase); type: cell-based; settings: antagonist effect in the presence of DHT 1 nM, 24 h, luciferase luminescence, read-out: AR antag KB
T4 sequence (P10275 1-920 Q868H): T2 sequence (P10275 1-920 T878A) with Q868H, A878T
Protocol: Functional Assay AR-Receptor
MDA-MB-453 cells were cultured in DMEM (ATCC, ref 30-2002), 10% FBS, 1% penicillin, 1% streptomycin, 75 μg/ml gentamycin.
The day before performing assay, the cells were trypsinized and seeded in a 384-well plate (Greiner, ref 781098) (8000 cells/well) in 50 μl of complete culture medium. Cells were stores at 37° C. in a 5% CO2 atmosphere overnight.
The medium was replaced by 50 μl complete growth medium with 0.1% FBS. Compounds were dispensed with Echo 550 (Labcyte) and incubated for 24 h at 37° C. in a 5% CO2 atmosphere. Antagonist effect was measured in the presence of DHT 1 nM.
After incubation, assay medium removed and 20 μl of 1× Promega lysis buffer were added to each well. The plate was incubated 15 minutes at RT and quick-frozen to −80° C. and the thaw to room temperature. 50 μl of luciferase substrate (E4550, Promega) were added to each well and luminescence (integration time 1000 msec) was read in an EnSpire multilabel reader (Perkin Elmer).

Compound: CC(=O)C1=C(C)NC(C)=C(C(=O)OCC2CC2)C1c1csc2ccccc12 (centres unmarked) [Example C6, Cyclopropylmethyl 5-acetyl-4-(benzo[b]thiophen-3-yl)-2,6-dimethyl-1,4-dihydropyridine-3-carboxylate]
pIC50 [1]: 6.00 to 7.00
pIC50 [2]: 6.00 to 7.00
pIC50 [3]: > 7.00

Compound: COC(=O)C1=C(C(F)(F)F)NC(C)=C(C(C)=O)C1c1csc2ccccc12 (centres unmarked) [Example C14, Methyl 5-acetyl-4-(benzo[b]thiophen-3-yl)-6-methyl-2-(trifluoromethyl)-1,4-dihydropyridine-3-carboxylate]
pIC50 [1]: 6.00 to 7.00
pIC50 [2]: > 7.00
pIC50 [3]: 6.00 to 7.00

Compound: COC(=O)C1=C(CF)NC(C)=C(C(C)=O)C1c1csc2ccccc12 (centres unmarked) [Example C20, Methyl 5-acetyl-4-(benzo[b]thiophen-3-yl)-2-(fluoromethyl)-6-methyl-1,4-dihydropyridine-3-carboxylate]
pIC50 [1]: 6.00 to 7.00
pIC50 [2]: 6.00 to 7.00

Compound: CC(=O)C1=C(C)NC(C)=C(C(=O)OCc2cccnc2)C1c1csc2ccc(F)cc12 (centres unmarked) [Example C57, Pyridin-3-ylmethyl 5-acetyl-4-(5-fluorobenzo[b]thiophen-3-yl)-2,6-dimethyl-1,4-dihydropyridine-3-carboxylate]
Kb [4]: 0.1 to 1 µM

Compound: CC(=O)C1=C(C)NC(C)=C(C(=O)OCc2cccnc2)C1c1csc2ccc(Cl)cc12 (centres unmarked) [Example C60, Pyridin-3-ylmethyl 5-acetyl-4-(5-chlorobenzo[b]thiophen-3-yl)-2,6-dimethyl-1,4-dihydropyridine-3-carboxylate]
Kb [4]: 0.1 to 1 µM

Compound: CC(=O)C1=C(C)NC(C)=C(C(=O)OCc2ccncc2)C1c1csc2ccc(Cl)cc12 (centres unmarked) [Example C62, Pyridin-4-ylmethyl 5-acetyl-4-(5-chlorobenzo[b]thiophen-3-yl)-2,6-dimethyl-1,4-dihydropyridine-3-carboxylate]
Kb [4]: 0.1 to 1 µM

Compound: COC(=O)C1=C(N)NC(C)=C(C(C)=O)C1c1csc2ccccc12 (centres unmarked) [Example D1, Methyl 5-acetyl-2-amino-4-(benzo[b]thiophen-3-yl)-6-methyl-1,4-dihydropyridine-3-carboxylate]
pIC50 [1]: > 7.00
pIC50 [2]: 6.00 to 7.00
pIC50 [3]: ≤ 6.00

Next, values leading:

pIC50 [1]: > 7.00
pIC50 [2]: > 7.00
Compound: CC1=C(C#N)C(c2csc3ccccc23)C(C#N)=C(C)N1 [Example E1, 4-(Benzo[b]thiophen-3-yl)-2,6-dimethyl-1,4-dihydropyridine-3,5-dicarbonitrile]

pIC50 [1]: > 7.00
pIC50 [2]: > 7.00
Compound: CC(=O)C1=C(C)NC(C)=C(C(C)=O)C1c1csc2ccccc12 [Example G1, 1,1′-(4-(benzo[b]thiophen-3-yl)-2,6-dimethyl-1,4-dihydropyridine-3,5-diyl)diethanone]

pIC50 [1]: > 7.00
pIC50 [2]: 6.00 to 7.00
Compound: CC(=O)C1=C(C)NC(C)=C(C(C)=O)C1c1csc2ncccc12 [Example H15, 1,1′-(2,6-Dimethyl-4-(thieno[2,3-b]pyridin-3-yl)-1,4-dihydropyridine-3,5-diyl)bis(ethan-1-one)]

pIC50 [1]: > 7.00
pIC50 [2]: > 7.00
Compound: COC(=O)C1=C(C)NC(C)=C(C(C)=O)C1c1csc2ncccc12 (centres unmarked) [Example J21, Methyl 5-acetyl-2,6-dimethyl-4-(thieno[2,3-b]pyridin-3-yl)-1,4-dihydropyridine-3-carboxylate]

pIC50 [1]: > 7.00
pIC50 [2]: > 7.00
pIC50 [3]: > 7.00
Compound: COC(=O)C1=C(C2CC2)NC(C)=C(C(C)=O)C1c1csc2ccc(F)cc12 (centres unmarked) [Example J22, Methyl 5-acetyl-2-cyclopropyl-4-(5-fluorobenzo[b]thiophen-3-yl)-6-methyl-1,4-dihydropyridine-3-carboxylate]

Kb [4]: 0.1 to 1 µM
Compound: CC(=O)C1=C(C)NC(C2CC2)=C(C(=O)OCc2ccncc2)C1c1csc2ccc(Cl)cc12 (centres unmarked) [Example J34, Pyridin-4-ylmethyl 5-acetyl-4-(5-chlorobenzo[b]thiophen-3-yl)-2-cyclopropyl-6-methyl-1,4-dihydropyridine-3-carboxylate]
